The values below come from patent US20050009840A1 (SUGEN, INC., priority 2003, published 2005).

Values joined by “and” are separate entries in the source; they are usually repeats but may differ in a detail not shown here. Identical values can stand only once. Like-named read-outs stand apart in the source and are kept apart here.

In the assay the target is T1, Met kinase domain (GST fusion protein) (Homo sapiens, UniProt P08581).
T1 construct: Purified GST fusion protein containing the Met kinase domain
T1 sequence (P08581 1078-1345 limits assumed): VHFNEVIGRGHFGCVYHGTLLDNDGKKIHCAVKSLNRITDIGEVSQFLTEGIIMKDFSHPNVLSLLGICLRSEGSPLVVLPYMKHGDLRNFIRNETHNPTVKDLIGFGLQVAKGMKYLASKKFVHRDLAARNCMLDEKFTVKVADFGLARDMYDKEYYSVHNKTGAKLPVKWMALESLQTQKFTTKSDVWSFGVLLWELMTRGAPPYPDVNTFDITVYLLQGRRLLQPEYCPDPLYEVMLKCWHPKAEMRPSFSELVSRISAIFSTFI
Put plainly: Met transphosphorylation assay (ELISA, poly(glu-tyr) substrate).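 Further: Cell-free ELISA with plate-bound poly(Glu:Tyr 4:1) phosphorylated by GST-fused Met kinase domain plus ATP and Mn2+, phosphotyrosine detected by anti-phosphotyrosine antibody with HRP and ABTS read-out.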 The assay is classed as biochemical. Conditions: read-out: Met IC50. For orientation: An ELISA detects its analyte on a solid surface through an enzyme-linked reagent.

Where [1] appears, read: plain numbers in column Met IC50 (μM) of Table 2.

What is called IC50 is the concentration that inhibits the measured activity by half.

Consider `Nc1ncc(-c2cccc(C(=O)N3CC[C@H](N)C3)c2)nc1OCc1c(F)ccc(F)c1Cl` [II-50, {3-[5-Amino-6-(2-chloro-3,6-difluoro-benzyloxy)-pyrazin-2-yl]-phenyl}-[(3S)-3-amino-pyrrolidin-1-yl]-methanone], for which the IC50 is 0.91 µM.
Regarding `CC(Oc1cc(-c2ccc(C(=O)N3CCN(C)CC3)nc2)cnc1N)c1c(Cl)ccc(F)c1Cl` (centres unmarked) [Example I-514, {6′-Amino-5′-[1-(2,6-dichloro-3-fluoro-phenyl)-ethoxy]-[3,3′]bipyridinyl-6-yl}-(4-methyl-piperazin-1-yl)-methanone], the IC50 under setting [1] stood at 0.0213 µM.
As to `CC(Oc1cc(-c2cccc(C(=O)N3CCC[C@@H]3CN3CCCC3)c2)cnc1N)c1c(Cl)cccc1Cl` (stereo partly drawn) [Example I-396, (3-{6-Amino-5-[1-(2,6-dichloro-phenyl)-ethoxy]-pyridin-3-yl}-phenyl)-((R)-2-pyrrolidin-1-ylmethyl-pyrrolidin-1-yl)-methanone], the IC50 under setting [1] amounted to 0.18 µM.
Regarding `CC(Oc1cc(-c2cccc(C(=O)NCCN3CCCC3)c2)cnc1N)c1c(Cl)ccc(F)c1Cl` (centres unmarked) [Example I-319, 3-{6-Amino-5-[1-(2,6-dichloro-3-fluoro-phenyl)-ethoxy]-pyridin-3-yl}-N-(2-pyrrolidin-1-yl-ethyl)-benzamide], the IC50 (Table 2) was found to be 0.1 µM.
As to `Nc1ncc(-c2ccc(N3CCCS3(=O)=O)cc2)cc1OCc1c(F)ccc(F)c1Cl` [Example I-240, 3-(2-Chloro-3,6-difluoro-benzyloxy)-5-[4-(1,1-dioxo-1λ^6-isothiazolidin-1-yl)-phenyl]-pyridin-2-ylamine], where the note is “Table 2”, the IC50 came to 0.1 µM.
Take `CC(Oc1cc(C#CCNC(=O)NCCCN2CCOCC2)cnc1N)c1c(Cl)ccc(F)c1Cl` (centres unmarked) [Example I-420, 1-(3-{6-Amino-5-[1-(2,6-dichloro-3-fluoro-phenyl)-ethoxy]-pyridin-3-yl}-prop-2-ynyl)-3-(3-morpholin-4-yl-propyl)-urea]: the IC50 under setting [1] came out at 0.064 µM.
In the case of `CC(Oc1cc(-c2ccc(C(=O)N3CCC[C@@H]3CN3CCCC3)cc2)cnc1N)c1ccccc1C(F)(F)F` (stereo partly drawn) [Example I-114, (4-{6-Amino-5-[1-(2-trifluoromethyl-phenyl)-ethoxy]-pyridin-3-yl}-phenyl)-[(2R)-2-pyrrolidin-1-ylmethyl-pyrrolidin-1-yl]-methanone], the half-inhibitory concentration (IC50) came out at 0.33 µM.
For the molecule `CC(Oc1nc(-c2ccc(C(=O)NC3CCN(C)CC3)cc2)cnc1N)c1c(F)ccc(F)c1Cl` (centres unmarked) [II-116, 4-{5-Amino-6-[1-(2-chloro-3,6-difluoro-phenyl)-ethoxy]-pyrazin-2-yl}-N-(1-methyl-piperidin-4-yl)-benzamide], the IC50 came to 0.19 µM.
Take `Nc1ncc(-c2cccnc2)cc1OCc1ccc(Cl)cc1` [Example I-497, 5-(4-Chloro-benzyloxy)-[3,3′]bipyridinyl-6-ylamine]: under setting [1], the IC50 was 14.1 µM.
Regarding `Nc1ncc(Br)cc1OCc1c(F)cccc1Cl` [I(e), 5-Bromo-3-(2-chloro-6-fluoro-benzyloxy)-pyridin-2-ylamine], the IC50 worked out at 20 µM.
Regarding `CC(Oc1nc(-c2ccc(C(=O)NCCN3CCOCC3)cc2)cnc1N)c1c(F)ccc(F)c1Cl` (centres unmarked) [II-118, 4-{5-Amino-6-[1-(2-chloro-3,6-difluoro-phenyl)-ethoxy]-pyrazin-2-yl}-N-(2-morpholin-4-yl-ethyl)-benzamide], the IC50 was 0.26 µM.
Turning to `CN1CCN(C(=O)c2cccc(-c3cnc(N)c(OCc4c(F)ccc(F)c4Cl)c3)c2)CC1` [Example I-226, {3-[6-Amino-5-(2-chloro-3,6-difluoro-benzyloxy)-pyridin-3-yl]-phenyl}-(4-methyl-piperazin-1-yl)-methanone], the concentration for half-maximal inhibition (IC50) (Table 2) stood at 0.068 µM.
On to `CC(Oc1cc(-c2cccc(C(=O)N3CC[C@H](N)C3)c2)cnc1N)c1c(Cl)ccc(F)c1Cl` (stereo partly drawn) [Example I-316, (3-{6-Amino-5-[1-(2,6-dichloro-3-fluoro-phenyl)-ethoxy]-pyridin-3-yl}-phenyl)-((S)-3-amino-pyrrolidin-1-yl)-methanone], for which the IC50 (Table 2) was determined as 0.048 µM.
Consider `CC(Oc1cc(-c2ccc(NC(=O)NC3CCN(C)CC3)cc2)cnc1N)c1c(F)ccc(F)c1Cl` (centres unmarked) [Example I-378, 1-(4-{6-Amino-5-[1-(2-chloro-3,6-difluoro-phenyl)-ethoxy]-pyridin-3-yl}-phenyl)-3-(1-methyl-pipendin-4-yl)-urea], for which the IC50 under setting [1] was 0.038 µM.
On to `CC(Oc1nc(Br)cnc1N)c1c(F)ccc(F)c1Cl` (centres unmarked) [II(c), 5-Bromo-3-[1-(2-chloro-3,6-difluoro-phenyl)-ethoxy]-pyrazin-2-ylamine], for which the IC50 is 1.81 µM and 2.67 µM.
As to `Nc1ncc(-c2ccc(C(=O)NCCCN3CCOCC3)cc2)cc1OCc1c(F)ccc(F)c1Cl` [Example I-224, 4-[6-Amino-5-(2-chloro-3,6-difluoro-benzyloxy)-pyridin-3-yl]-N-(3-morpholin-4-yl-propyl)-benzamide], the IC50 (Table 2) worked out at 0.28 µM.
Consider `CC(Oc1cc(-c2ccnc(C(=O)N3CCN(C)CC3)c2)cnc1N)c1c(Cl)ccc(F)c1Cl` (centres unmarked) [Example I-515, {6-Amino-5-[1-(2,6-dichloro-3-fluoro-phenyl)-ethoxy]-[3,4′]bipyridinyl-2′-yl}-(4-methyl-piperazin-1-yl)-methanone], for which the IC50 under setting [1] turned out to be 0.0387 µM.
For the molecule `Nc1ncc(-c2ccc(C(=O)N3CCC(N4CCCC4)CC3)cc2)nc1OCc1c(Cl)cccc1Cl` [II-8], the IC50 came to 0.56 µM.
Take `CS(=O)(=O)Nc1ccc(-c2cnc(N)c(OCc3ccccc3C(=O)NCCO)c2)cc1` [Example I-139, 2-[2-Amino-5-(4-methanesulfonylamino-phenyl)-pyridin-3-yloxymethyl]-N-(2-hydroxy-ethyl)-benzamide]: the IC50 was greater than 20 µM.
On to `Nc1ncc(-c2ccncc2)cc1OCc1c(Cl)cccc1Cl` [Example I-507, 5-(2,6-Dichloro-benzyloxy)-[3,4′]bipyridinyl-6-ylamine], for which the IC50 under setting [1] turned out to be 1.3 µM.
With `Nc1ncc(-c2cccc(C(=O)N3CC[C@@H](N)C3)c2)nc1OCc1c(F)ccc(F)c1Cl` [II-49, {3-[5-Amino-6-(2-chloro-3,6-difluoro-benzyloxy)-pyrazin-2-yl]-phenyl}-[(3R)-3-amino-pyrrolidin-1-yl]-methanone], the 50% inhibitory concentration (IC50) is 1.02 µM.
Regarding `CC(Oc1nc(-c2ccc(C(=O)N3CCC(NC4CC4)CC3)cc2)cnc1N)c1c(Cl)ccc(F)c1Cl` (centres unmarked) [II-147, (4-{5-Amino-6-[1-(2,6-dichloro-3-fluoro-phenyl)-ethoxy]-pyrazin-2-yl}-phenyl)-(4-cyclopropylamino-piperidin-1-yl)-methanone], the IC50 was found to be 0.13 µM.
For `CC(Oc1cc(OCc2ccccn2)cnc1N)c1c(F)ccc(F)c1Cl` (centres unmarked) [Example I-539, 3-[1-(2-Chloro-3,6-difluoro-phenyl)-ethoxy]-5-(pyridin-2-ylmethoxy)-pyridin-2-ylamine], the IC50 under setting [1] was determined as 3.2 µM.
For `CN1CCN(C(=O)c2ccc(-c3cnc(N)c(OCc4ccccc4C#N)c3)cc2)CC1` [Example I-166, 2-{2-Amino-5-[4-(4-methyl-piperazine-1-carbonyl)-phenyl]-pyridin-3-yloxymethyl}-benzonitrile], the IC50 worked out at 3.2 µM.
The same measure, in the same setting: the result for `Nc1ncc(-c2ccc(C(=O)NCCCN3CCOCC3)cc2)cc1OCc1c(F)cccc1Cl` [Example I-149, 4-[6-Amino-5-(2-chloro-6-fluoro-benzyloxy)-pyridin-3-yl]-N-(3-morpholin-4-yl-propyl)-benzamide] reads 5.6 µM.
Take `CN1CCC(NC(=O)c2ccc(-c3cnc(N)c(OCc4c(F)ccc(F)c4Cl)c3)cc2)CC1` [Example I-220, 4-[6-Amino-5-(2-chloro-3,6-difluoro-benzyloxy)-pyridin-3-yl]-N-(1-methyl-piperidin-4-yl)-benzamide]: where the note is “Table 2”, the IC50 amounted to 0.11 µM.
On to `Nc1ncc(-c2ccc(NS(=O)(=O)CCN3CCC[C@H]3CO)cc2)cc1OCc1c(F)ccc(F)c1Cl` [Example I-253, 2-[(2S)-2-Hydroxymethyl-pyrrolidin-1-yl]-ethanesulfonic acid {4-[6-amino-5-(2-chloro-3,6-difluoro-benzyloxy)-pyridin-3-yl]-phenyl}-amide], for which the IC50 (Table 2) was determined as 0.097 µM.
As for `Nc1ncc(-c2ccc(OCC(=O)O)cc2)cc1OCc1c(F)cccc1F` [Example I-125, {4-[6-Amino-5-(2,6-difluoro-benzyloxy)-pyridin-3-yl]-phenoxy}-acetic acid], the IC50 amounted to 14.7 µM.
For the molecule `CCN(CC)CCS(=O)(=O)Nc1cccc(-c2cnc(N)c(OCc3c(F)ccc(F)c3Cl)c2)c1` [Example I-258, 2-Diethylamino-ethanesulfonic acid {3-[6-amino-5-(2-chloro-3,6-difluoro-benzyloxy)-pyridin-3-yl]-phenyl}amide], for the setting “Table 2”, the IC50 worked out at 1.67 µM.
As for `CC(Oc1nc(-c2ccc(C(=O)N3C[C@@H](C)N[C@@H](C)C3)cc2)cnc1N)c1c(Cl)cccc1Cl` (stereo partly drawn) [II-159, (4-{5-Amino-6-[1-(2,6-dichloro-phenyl)-ethoxy]-pyrazin-2-yl}-phenyl)-((3R,5S)-3,5-dimethyl-piperazin-1-yl)-methanone], the IC50 is 0.14 µM.
The same measure, in the same setting: the result for `CC(Oc1nc(-c2cccc(C(=O)NCCN3CCCC3)c2)cnc1N)c1c(Cl)ccc(F)c1Cl` (centres unmarked) [II-133, 3-{5-Amino-6-[1-(2,6-dichloro-3-fluoro-phenyl)-ethoxy]-pyrazin-2-yl}-N-(2-pyrrolidin-1-yl-ethyl)-benzamide] reads 0.17 µM; that for `CC(Oc1nc(-c2ccc(C(=O)NC[C@H](O)CN3CCCC3)cc2)cnc1N)c1c(Cl)ccc(F)c1Cl` (some centres unmarked) [II-148], 0.12 µM.
For the molecule `CC(Oc1cc(-c2ccc(C(=O)NCCCN3CCCC3)cc2)cnc1N)c1c(Cl)ccc(F)c1Cl` (centres unmarked) [Example I-301, 4-{6-Amino-5-[1-(2,6-dichloro-3-fluoro-phenyl)-ethoxy]-pyridin-3-yl}-N-(3-pyrrolidin-1-yl-propyl)-benzamide], the IC50 (Table 2) came out at 0.064 µM.
With `Nc1ncc(Br)cc1OCc1c(F)ccc(F)c1Cl` [I(l), 5-Bromo-3-(2-chloro-3.6-difluoro-benzyloxy)-pyridin-2-ylamine], the IC50 was found to be 5.3 µM.
Turning to `Nc1ncc(-c2cccc(NS(=O)(=O)CCN3CCCC3)c2)nc1OCc1c(F)ccc(F)c1Cl` [II-27, 2-Pyrrolidin-1-yl-ethanesulfonic acid {3-[5-amino-6-(2-chloro-3,6-difluoro-benzyloxy)-pyrazin-2-yl]-phenyl}-amide], the IC50 is 1.8 µM.
